Measured values as given in patent US9975882B2, “Heteroaromatic compounds as BTK inhibitors” (Boehringer Ingelheim International GmbH, priority 2015, dated 2018).
Where two headings read alike, the source gives them in different places.

What was measured:
[1] = target: human full length His-tagged BTK (Homo sapiens (Human), UniProt Q06187); test: BTK Lanthscreen Eu Kinase Binding assay; settings: 2 nM BTK
Description: BTK Lanthscreen® Eu Kinase Binding Assay:
A Lanthscreen® Eu Kinase Binding assay (Life Technologies) is performed to quantitate the ability of test compounds to bind to BTK. The assay is based on the binding and displacement of Alexa Fluor647-labeled Kinase Tracer #236 to the ATP-binding site of human full length His-tagged BTK (Life Technologies cat #PV3587) with TR-FRET detection using a europium-labeled anti-His antibody. The assay is assembled in 384-well low volume NBS black plates (Corning) where 2 nM BTK and test compound in DMSO at varying concentrations are pre-incubated for 30 min at 28° C. in assay buffer consisting of 50 mM HEPES, pH 7.4, 10 mM MgCl2, 1 mM EGTA. 100 μM Na3VO4 and 0.01% Brij 35. Then, 2 nM of Eu-anti His antibody and 30 nM Kinase Tracer are added and incubated for 60 min at 28° C. Following incubation, TR-FRET signal is read on an Envision plate reader (Excitation: 340 nm; Emissions: 615 and 665 nm). The 665:615 nm emission ratio is calculated and converted to POC compared to control and blank wells.

[2] = test system: BTK (IL-6 production in primary CD19+ B cells); test: Inhibition of IL-6 production in B cells co-stimulated with ODN 2006 and anti-hIgD; format: cell-based; settings: B-cell, anti-human IgD + ODN 2006
Description: Inhibition of IL-6 Production in B Cells Co-Stimulated with ODN 2006 and anti-hIgD
Primary CD19+ B cells (AllCells #PB010F) are thawed and plated in RPMI containing 10% HI FBS in a 384-well tissue cultured plate at 20,000 cells/well. The cells are treated with test compound (0.5% DMSO final concentration) and incubated for 1 hour at 37° C., 5% CO2. Cells are then stimulated with 5 ug/mL Goat F(ab′)2 anti-human IgD (SouthernBiotech #2032) and 2 uM ODN 2006 (InvivoGen #tlrl-2006) and incubated for 18-24 hours at 37° C., 5% CO2. IL-6 in the supernatant is measured using Meso Scale Discovery kit #K211AKB-6.
(§1) Representative compounds of the present invention are tested and show BTK inhibition (Table I). […] Additionally, compounds of the present invention, as represented by examples in Table II, are selective for BTK inhibition over other related kinases. […] In this table the BTK activity is measured by IL-6 production in primary CD19^+ B cells, and the EGFR activity is measured by EGFR phosphorylation in A431 cells.

[3] = target: EGFR (EGFR phosphorylation in A431 cells) (Homo sapiens (Human), UniProt P00533); test: Inhibition of EGFR autophosphorylation in A431 human epithelial cells stimulated with EGF; format: cell-based; settings: EGF 60 ng/mL, read-out: A431 p-EGFR IC50
Chain of EGFR (EGFR phosphorylation in A431 cells) (P00533 25-1210): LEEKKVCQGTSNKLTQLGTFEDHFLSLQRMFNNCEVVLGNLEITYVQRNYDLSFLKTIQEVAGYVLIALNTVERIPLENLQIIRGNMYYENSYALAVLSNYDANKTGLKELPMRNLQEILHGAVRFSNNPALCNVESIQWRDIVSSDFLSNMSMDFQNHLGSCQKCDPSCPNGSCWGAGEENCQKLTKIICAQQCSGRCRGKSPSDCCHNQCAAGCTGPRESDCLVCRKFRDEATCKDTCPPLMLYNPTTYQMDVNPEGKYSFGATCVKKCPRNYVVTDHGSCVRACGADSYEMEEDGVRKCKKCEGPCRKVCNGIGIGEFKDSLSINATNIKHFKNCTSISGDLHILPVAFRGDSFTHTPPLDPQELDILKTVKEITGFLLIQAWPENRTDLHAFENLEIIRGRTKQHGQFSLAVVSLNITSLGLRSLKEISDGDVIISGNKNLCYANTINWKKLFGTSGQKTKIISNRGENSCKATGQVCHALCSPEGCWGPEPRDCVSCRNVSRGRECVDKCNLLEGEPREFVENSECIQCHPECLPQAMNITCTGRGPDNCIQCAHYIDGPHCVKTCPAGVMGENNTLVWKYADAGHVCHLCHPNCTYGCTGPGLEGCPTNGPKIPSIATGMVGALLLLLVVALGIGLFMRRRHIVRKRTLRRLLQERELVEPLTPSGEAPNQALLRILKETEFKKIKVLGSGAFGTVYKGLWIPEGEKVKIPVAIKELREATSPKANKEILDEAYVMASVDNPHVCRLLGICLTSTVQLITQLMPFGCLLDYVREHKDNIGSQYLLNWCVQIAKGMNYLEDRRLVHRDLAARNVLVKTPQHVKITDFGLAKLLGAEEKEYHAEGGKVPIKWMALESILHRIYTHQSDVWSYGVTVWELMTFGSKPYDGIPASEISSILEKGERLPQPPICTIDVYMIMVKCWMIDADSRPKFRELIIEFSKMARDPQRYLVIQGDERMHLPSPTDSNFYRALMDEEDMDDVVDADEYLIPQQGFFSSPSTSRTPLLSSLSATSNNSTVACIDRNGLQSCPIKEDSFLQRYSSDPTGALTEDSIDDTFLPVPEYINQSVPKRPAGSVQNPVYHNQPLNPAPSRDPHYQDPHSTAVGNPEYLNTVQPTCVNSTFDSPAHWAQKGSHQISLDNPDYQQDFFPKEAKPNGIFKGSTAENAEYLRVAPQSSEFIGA
Description: Inhibition of EGFR Autophosphorylation in A431 Human Epithelial Cells Stimulated with Epithelial Growth Factor
A431 cells (ATCC #CRL-1555 FZ) are thawed and plated in DMEM containing 10% FBS in a 384-well tissue culture treated plate at 15,000 cells/well. After incubating for 24 hours at 37° C., 5% CO2, the cells are treated with test compound (1% DMSO final concentration) and incubated for 16 hours at 37° C., 5% CO2. EGF (Millipore, 01-107) is added at a final concentration of 60 ng/mL and incubated for 10 minutes. The medium is removed, the cells are lysed, and phospho EGFR is measured (Meso Scale Diagnostics, N31CB-1).
as §1

[4] = target: human recombinant BTK (full length, His-tagged) (Homo sapiens (Human), UniProt Q06187); test: BTK Z'-LYTE assay; format: biochemical; settings: 25 μM ATP;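 note: FRET readout of kinase phosphorylating a coumarin and fluorescein labelled synthetic peptide, detected via protease sensitivity of unphosphorylated versus phosphorylated substrate, incubated at 22 °C in 384-well plates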
Chain of human recombinant BTK (full length, His-tagged) (Q06187 whole entry): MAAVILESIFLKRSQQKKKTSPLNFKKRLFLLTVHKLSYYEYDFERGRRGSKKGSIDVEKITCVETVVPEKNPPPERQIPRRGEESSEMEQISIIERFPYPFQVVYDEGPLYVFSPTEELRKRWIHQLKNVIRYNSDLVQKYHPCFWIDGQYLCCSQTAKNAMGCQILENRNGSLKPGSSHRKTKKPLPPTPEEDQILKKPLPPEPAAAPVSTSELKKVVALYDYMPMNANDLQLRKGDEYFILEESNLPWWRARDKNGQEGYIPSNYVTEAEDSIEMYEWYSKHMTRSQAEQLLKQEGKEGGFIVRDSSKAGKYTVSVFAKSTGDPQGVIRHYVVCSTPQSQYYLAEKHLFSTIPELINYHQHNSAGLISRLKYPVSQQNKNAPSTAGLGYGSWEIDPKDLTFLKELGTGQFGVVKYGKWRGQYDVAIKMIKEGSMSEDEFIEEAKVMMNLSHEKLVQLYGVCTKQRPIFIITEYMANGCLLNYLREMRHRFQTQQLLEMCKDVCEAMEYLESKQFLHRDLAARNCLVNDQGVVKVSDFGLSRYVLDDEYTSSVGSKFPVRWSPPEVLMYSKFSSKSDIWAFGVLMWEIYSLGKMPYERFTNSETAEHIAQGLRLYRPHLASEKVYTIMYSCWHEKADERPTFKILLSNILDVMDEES
Description: Z′-LYTE™ Assay (Life Technologies):
(§3) The Z′-Lyte assay employs a FRET-based, coupled-enzyme format and is based on the differential sensitivity of phosphorylated and non-phosphorylated peptides to proteolytic Cleavage. The activity of human recombinant BTK (full length, His-tagged), BMX (full length, His-tagged) or Txk (full length, GST-tagged) is estimated by measuring the phosphorylation of a synthetic FRET peptide substrate labeled with Coumarin and Fluorescein. […] Incubations are carried out at 22° C. in black polypropylene 384-well plates (Corning).
(§4) Representative compounds of the present invention are assessed for inhibition of BTK, BMX, and TXK measuring phosphorylation of a substrate (Z′-LYTE™ assay, Life Technologies) and TEC measuring displacement of a “tracer” (Lanthscreen® Eu Kinase Binding assay, Life Technologies).

[5] = target: human recombinant full length TEC (His-tagged) (Homo sapiens (Human), UniProt P42680); test: TEC Lanthscreen Eu Kinase Binding assay; settings: 1 nM TEC
Chain of human recombinant full length TEC (His-tagged) (P42680 whole entry): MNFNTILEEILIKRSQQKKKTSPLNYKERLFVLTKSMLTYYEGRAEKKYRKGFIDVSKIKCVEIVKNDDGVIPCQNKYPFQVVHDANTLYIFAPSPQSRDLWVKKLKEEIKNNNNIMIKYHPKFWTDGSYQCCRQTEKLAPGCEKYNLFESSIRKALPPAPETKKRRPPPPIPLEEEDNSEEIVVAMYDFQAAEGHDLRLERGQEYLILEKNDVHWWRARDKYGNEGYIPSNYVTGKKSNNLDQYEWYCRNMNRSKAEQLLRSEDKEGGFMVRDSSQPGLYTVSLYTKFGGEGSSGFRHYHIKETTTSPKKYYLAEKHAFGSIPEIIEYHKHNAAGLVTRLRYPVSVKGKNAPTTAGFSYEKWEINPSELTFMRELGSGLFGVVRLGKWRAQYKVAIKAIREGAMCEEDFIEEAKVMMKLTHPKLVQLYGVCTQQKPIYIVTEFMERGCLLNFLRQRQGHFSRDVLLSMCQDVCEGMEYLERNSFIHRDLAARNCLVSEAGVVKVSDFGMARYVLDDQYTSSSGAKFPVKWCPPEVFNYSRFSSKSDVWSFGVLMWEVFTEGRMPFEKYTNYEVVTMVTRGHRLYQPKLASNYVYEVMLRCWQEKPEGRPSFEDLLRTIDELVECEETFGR

[6] = test system: mean arterial pressure (MAP); settings: rat, in vivo, po
Description: In-Vivo Assay—Comparison Between the Compounds of the Present Invention and Comparative Compounds A, B and C
In a side-by-side in-vivo study, select compounds of the present invention and comparative compounds A-C are evaluated in telemetry-instrumented conscious rats to determine their effects on mean arterial pressure (MAP) at doses at or above therapeutically relevant concentrations.
(§2) All animals (telemetry-instrumented) are single housed in metabolic cages. Rats are acclimated to the metabolic cage for at least 3 days and then dosed with vehicle for up to 4 days. Blood pressure, heart rate, and bodyweight are collected during the baseline period and animals are randomized into 3 groups based on these parameters (n=8-9/group). Treatment groups are: vehicle and test compound (10 mg/kg po and 30 mg/kg po qd); animals are treated with compound for 5 days. […] Mean arterial pressure (MAP) and heart rate (HR) are collected continuously throughout the study. Statistical analyses is performed using GraphPad Prism based on the average 24-hr mean value during five days of compound administration (one-way ANOVA with Dunnett's post-test vs. Vehicle; p<0.05 is considered statistically significant).

[7] = Plasma compound exposure in rats (tail bleed, day 6); format: in vivo; settings: plasma, rat
Description: as §2

[8] = target: human recombinant Txk (full length, GST-tagged) (Homo sapiens (Human), UniProt P42681); test: TXK Z'-LYTE assay; settings: read-out: TXK IC50, 100 μM ATP;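 note: FRET read-out of kinase phosphorylation of a synthetic peptide labelled with Coumarin and Fluorescein, scored by protease sensitivity of unphosphorylated peptide, incubated at 22 °C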
Chain of human recombinant Txk (full length, GST-tagged) (P42681 whole entry): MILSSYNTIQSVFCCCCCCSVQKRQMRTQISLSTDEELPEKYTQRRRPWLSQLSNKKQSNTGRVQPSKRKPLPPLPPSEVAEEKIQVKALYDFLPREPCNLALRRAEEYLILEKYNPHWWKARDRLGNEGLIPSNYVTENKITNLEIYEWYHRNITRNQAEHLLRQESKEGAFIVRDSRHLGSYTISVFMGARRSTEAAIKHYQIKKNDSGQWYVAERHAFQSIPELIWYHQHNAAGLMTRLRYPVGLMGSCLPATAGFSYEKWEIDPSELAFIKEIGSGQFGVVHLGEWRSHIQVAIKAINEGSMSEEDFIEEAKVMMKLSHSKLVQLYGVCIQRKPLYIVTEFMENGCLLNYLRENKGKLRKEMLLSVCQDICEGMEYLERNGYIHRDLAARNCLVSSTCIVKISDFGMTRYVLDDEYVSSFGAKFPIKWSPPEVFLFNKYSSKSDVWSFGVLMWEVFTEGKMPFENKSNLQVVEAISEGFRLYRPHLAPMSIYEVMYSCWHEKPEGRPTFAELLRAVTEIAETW
Description: Z′-LYTE™ Assay (Life Technologies):
as §3, §4

Chain of human full length His-tagged BTK (Q06187 whole entry): as the sequence (Q06187 whole entry) above

IC50 [1] [nM]	IC50 [2] [nM]	IC50 [3] [nM]	IC50 [4] [nM]	IC50 [5] [nM]	5-Day 24-h MAP Change versus Control ([6]; 10 mg/kg)	5-Day 24-h MAP Change versus Control ([6]; 30 mg/kg)	Cmax ([7]; 10 mg/kg po qd) [nM]	Cmax ([7]; 30 mg/kg po qd) [nM]	IC50 [8] [nM]	SMILES
0.5	0.5	> 10000	1.7	92	No statistically significant	No statistically significant	111 ± 37	344 ± 106	130	CC#CC(=O)N1CC[C@]2(C1)C[C@H](n1nc(-c3cnn(Cc4ccccc4C(F)(F)F)c3)c(C(N)=O)c1N)C2 [Example 12]
0.3	0.8	> 10000	0.7	21	No statistically significant	No statistically significant	170 ± 29	720 ± 262	46	CC#CC(=O)N1CC[C@]2(C1)C[C@H](n1nc(-c3cnn(Cc4cccc(C(F)(F)F)c4)c3)c(C(N)=O)c1N)C2 [Example 22]
